{"source": "patent US10184115B2", "about": "“Mutated cellobiose dehydrogenase with increased substrate specificity” (DIRECTSENS GMBH, priority 2012, dated 2019)", "target": "T1, Myriococcum thermophilum cellobiose dehydrogenase (CDH, SEQ ID NO: 1) variant W316R (Thermothelomyces myriococcoides, UniProt A9XK88, W316R)", "T1 sequence (A9XK88 22-828 W316R)": "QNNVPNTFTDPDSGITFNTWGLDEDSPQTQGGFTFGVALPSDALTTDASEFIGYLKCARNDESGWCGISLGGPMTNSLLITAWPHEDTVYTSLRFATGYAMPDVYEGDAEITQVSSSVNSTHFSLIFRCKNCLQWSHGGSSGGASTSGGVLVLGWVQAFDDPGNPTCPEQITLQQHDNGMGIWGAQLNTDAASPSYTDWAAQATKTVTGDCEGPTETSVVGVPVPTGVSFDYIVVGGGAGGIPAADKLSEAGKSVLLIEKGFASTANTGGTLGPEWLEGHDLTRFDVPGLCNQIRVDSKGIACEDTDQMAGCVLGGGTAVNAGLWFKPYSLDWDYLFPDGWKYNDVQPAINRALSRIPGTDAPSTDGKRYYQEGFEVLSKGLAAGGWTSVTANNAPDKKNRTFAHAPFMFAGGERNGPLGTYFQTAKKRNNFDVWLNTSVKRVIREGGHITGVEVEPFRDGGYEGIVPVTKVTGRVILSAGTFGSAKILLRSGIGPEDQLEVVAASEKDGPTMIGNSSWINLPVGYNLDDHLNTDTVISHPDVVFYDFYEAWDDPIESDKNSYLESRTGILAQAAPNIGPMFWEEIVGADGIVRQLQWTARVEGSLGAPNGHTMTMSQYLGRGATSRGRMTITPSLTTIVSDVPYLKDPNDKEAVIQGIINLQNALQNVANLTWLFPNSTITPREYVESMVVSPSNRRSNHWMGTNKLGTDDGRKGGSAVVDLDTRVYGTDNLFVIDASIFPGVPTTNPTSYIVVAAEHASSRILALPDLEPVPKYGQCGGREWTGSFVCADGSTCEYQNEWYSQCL", "test": "Steady-state kinetics, DCIP assay: M. thermophilum CDH W316R", "assay_type": "biochemical", "settings": "apparent, pH 4.5, 30° C.", "experimental": "Enzyme activity was assayed at 30° C. using either the DCIP (Karapetyan et al., 2005 Journal of Biotechnology 121: 34-48) or cytochrome c (Canevascini et al., 1991, European Journal of Biochemistry 198: 43-52) as electron acceptor. […] Stock solutions of carbohydrates used for kinetic measurements were prepared in the respective buffer and allowed to stand overnight for mutarotation, while stock solutions of electron acceptors were prepared in water and immediately used. The reaction stoichiometry is 1 for the two-electron acceptor DCIP (1 mole of DCIP reduced per mole of carbohydrate oxidized), but 2 for the one-electron acceptor cytochrome c. Kinetic constants were calculated by fitting the observed data to the Henri-Michaelis-Menten equation or to the adapted model for substrate inhibition using nonlinear least-squares regression and the program SigmaPlot (Systat Software, San Jose, Calif., USA). […]\nRecombinant wild-type CDH as well as variants were produced in 1 L baffled flasks. […] Increase in activity was monitored using the DCIP and the cytochrome c enzyme assays. […]\nThe sample was loaded on a 20 mL PHE Sepharose FF column (HR26/20) equilibrated with 50 mM Na-acetate buffer pH 5.5 containing 20% ammonium sulfate. […] Fractions were tested for CDH activity and pooled according to the highest Reinheitszahl (RZ, calculated from the absorbance ratio 420 nm/280 nm). […]"}
{"smiles": "OC[C@H]1O[C@H](O[C@H]2[C@H](O)[C@@H](O)C(O)O[C@@H]2CO)[C@H](O)[C@@H](O)[C@@H]1O", "note": "(some centres unmarked) [Maltose, maltose]", "values": [{"measurement": "kcat/KM", "value": 0.09, "unit": "M⁻¹ s⁻¹"}, {"measurement": "kcat", "setting": "~ values only estimated by non linear regression", "value": 0.12, "unit": "s⁻¹"}]}
